Numbers after ± are expanded uncertainties.

A word on the refractive index: it is a measure of how strongly the sample bends light.

Data set [1] in a line: refractive index (Na D-line) (dimensionless). The conditions noted are these: 101.33 kPa, Liquid, Standard Abbe refractometry.
Data set [2] in a line: refractive index (Na D-line) (dimensionless); wn = mass fraction of the nth substance listed. The note with it: 95 kPa, Liquid, Standard Abbe refractometry.

Turning to `CCCCCCCCCCCC` [dodecane], the refractive index was 1.4196 ± 0.0006 in data set [1] (298.2 K) and 1.4131 ± 0.0006 in data set [1] (313.2 K).

Take `CCCCCCCCCCCC` [dodecane] + Cc1cccc2c1sc1c(C)cccc12: the refractive index was found to be 1.4196 ± 0.0006 in data set [2] (298.2 K, w2 = 0) and 1.4131 ± 0.0006 in data set [2] (313.2 K, w2 = 0).

Regarding `CCOP(=O)([O-])OCC.CCn1cc[n+](C)c1` [1-ethyl-3-methylimidazolium diethyl phosphate], the refractive index is reported as 1.4733 ± 0.0006 in data set [1] (298.2 K) and 1.4691 ± 0.0006 in data set [1] (313.2 K).

Consider `CCOS(=O)(=O)[O-].CCn1cc[n+](C)c1` [1-ethyl-3-methylimidazolium ethyl sulfate], for which the results for the refractive index in data set [1] (298.2 K) and in data set [1] (313.2 K) were 1.4789 ± 0.0011 and 1.4745 ± 0.0011, respectively.

With `Cc1cccc2c1sc1c(C)cccc12` [4,6-dimethyldibenzo[b,d]thiophene] + CCCCCCCCCCCC, the refractive index came out at 1.4201 ± 0.0006 in data set [2] (298.2 K, w1 = 0.0037); 1.4206 ± 0.0006 in data set [2] (298.2 K, w1 = 0.0062); 1.421 ± 0.0006 in data set [2] (298.2 K, w1 = 0.0089); 1.4137 ± 0.0006 in data set [2] (313.2 K, w1 = 0.0037); 1.4141 ± 0.0006 in data set [2] (313.2 K, w1 = 0.0062); 1.4146 ± 0.0006 in data set [2] (313.2 K, w1 = 0.0089).

For the origin of these results see the NIST ThermoML archive (doi:10.1021/je100991y).
